What is called Kd is the concentration at which binding is half-saturated.

Starred links: 1 amine or outer side, 2 acyl side, 3 side chain; linkers in the order of their positions; H or OH if unused. Positions of bridges follow the written chain, without caps; N, C: chain ends. Residues, ends and D or L forms follow the SMILES beside them. Chains are numbered I, II in the order given. *: point of attachment. FITC = O=C1OC2(c3ccc(O)cc3Oc3cc(O)ccc32)c2ccc(NC(=S)*)cc21; X1 = c1cc(C[*:1])ccc1COCc1ccc(C[*:2])cc1; βAla = NCCC(=O)O Bounds are passed on as bounds.

The values below come from publication PMC12022973, “Proteomimetic Strategy for the Modulation of Intrinsically Disordered Protein MYC” (Journal of the American Chemical Society, 2025).

For assay [1], the target named is T1, recombinant human MYC^353–437 protein (His6-MYC^353–437) (Homo sapiens, UniProt P01106).
T1 construct: recombinant human MYC^353–437 protein; made in house; host or cells: E. coli BL21(DE3), pET151-D-TOPO-cMyc vector
Briefly: Fluorescence polarization direct binding of fluorescein-labeled CHDs to His6-MYC353-437. The note with it: FP direct binding; 15 nM FITC-labeled peptide; His6-MYC serial dilutions from 10 μM; 1X PBS, 1 mM DTT, 5% glycerol, 0.1% pluronic acid, pH 6.7; 25 °C; triplicate; MYC aggregates above 5 μM; read-out: Binding Affinity MYC^353-436, Kd. As to the method: pET151-D-TOPO-cMyc vector was kindly provided by Dr. Edward Prochownik from the
Department of Pediatrics at UPMC Children’s Hospital of Pittsburgh. Expression and purification
of Myc353-437 were performed using an established protocol with minor modifications.7 BL21(DE3)
cells were used to express recombinant Myc353-437 protein. Bacteria were grown at 37 °C to OD600
of 0.8 followed by 1 mM IPTG induction and 16-18h growth at RT. Cells were harvested via
centrifugation at 4,000 rpm at 4 °C and the pellet was resuspended in 10 mL of lysis buffer (8 M
urea, 100 mM NaH2PO4, 10 mM Tris HCl, pH 8) supplemented with protease inhibitor cocktail
(PierceTM Protease Inhibitor Tablets) and benzonase nuclease. Suspensions were sonicated on
ice using a Branson Cell Disruptor 200 and centrifuged at 12,000 rpm for 45 min at 4 °C. Clarified
lysate was applied to a column containing pre-equilibrated HisPur Ni-NTA Superflow Agarose
(ThermoFisher Scientific) for overnight at 4 °C. The resin beads were washed with 10 mL of
additional lysis buffer followed by three washes of 10 mL wash buffer (8 M urea, 100 mM
NaH2PO4, 10 mM Tris HCl, 10 mM imidazole). The target protein was eluted with elution buffer (8
M urea, 100 mM NaH2PO4, 10 mM Tris HCl, 250 mM imidazole) and buffer exchanged into 150
mM NaCl, 50 mM Tris HCl, 5% glycerol, pH 6.7. Protein was concentrated by ultra-filtration (3000
MWCO; Amicon Ultra-15 Centrifugal Filter units from EMD Millipore) followed by TEV cleavage
(1:100 w/w of protease to target protein) in 150 mM NaCl, 50 mM Tris HCl, 5% glycerol, pH 6.7
for 24 hrs at 4 °C. The cleaved protein is further purified by reverse-phase HPLC (gradient 10-60
acetonitrile/water with 0.1% TFA over 35 min) to remove TEV protease and un-cleaved protein.
Purified Myc353-437 was lyophilized and stored at -20 °C. Myc353-437 identity was characterized by
(§1) Fluorescence Polarization Binding Assay
(§2) The relative affinities of FITC-CHDMax-1 to His6-Myc353-436 and full-length His6-Max were
(§3) determined using fluorescence polarization-based direct binding assay. The polarization
(§4) experiments were performed using a DTX 880 Multimode Detector (Beckman) at 25 °C with
(§5) excitation and emission wavelengths of 485 and 525 nm, respectively. Each polarization
(§6) experiment was performed in a 96-well round bottom plate (Greiner) in assay buffer: 1X PBS, 1
(§7) mM DTT, 5% glycerol, 0.1% pluronic acid, pH 6.7. The binding affinity (KD) values reported for
(§8) each peptide are from experiments performed in triplicate. Raw values were fit to a sigmoidal
(§9) dose-response nonlinear regression model in GraphPad Prism 6.0.
(§10) All binding experiments with FITC-labeled peptides to His6-Myc353-436 or His6-Max were performed
(§11) under the same conditions. Briefly, serial dilutions of His6-Myc353-436 and His6-Max were made
(§12) from 10 μM into 15 nM of FITC-labeled peptide in assay buffer. KD was determined using the
(§13) KD1 = (RT*(1-FSB) + LST*FSB2)/FSB-LST
(§14) RT = Total concentration of His6-Myc353-436 or His6-Max
(§15) LST = Total concentration of FITC-labeled peptide
(§16) FSB = Fraction of bound FITC-labeled peptide
On the technique in general: Fluorescence polarisation rises when a labelled molecule tumbles more slowly, as on binding a larger partner.

The target in assay [2] is T2, full-length His6-Max (MAX^1-160) (Homo sapiens, UniProt P61244).
T2 construct: N.B. (MAX^1-160)
Briefly: Fluorescence polarization direct binding to His6-MAX. To be noted: FP direct binding; 15 nM FITC-labeled peptide; His6-MAX from 10 μM; 1X PBS, 1 mM DTT, 5% glycerol, 0.1% pluronic acid, pH 6.7; 25 °C. As to the method:
as §1, §2, §3, §4, §5, §6, §7, §8, §9, §10, §11, §12, §13, §14, §15, §16

T1 sequence (P01106 368-452): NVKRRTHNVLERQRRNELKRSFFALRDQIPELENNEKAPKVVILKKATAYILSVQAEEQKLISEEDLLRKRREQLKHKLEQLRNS
T2 sequence (P61244 whole entry): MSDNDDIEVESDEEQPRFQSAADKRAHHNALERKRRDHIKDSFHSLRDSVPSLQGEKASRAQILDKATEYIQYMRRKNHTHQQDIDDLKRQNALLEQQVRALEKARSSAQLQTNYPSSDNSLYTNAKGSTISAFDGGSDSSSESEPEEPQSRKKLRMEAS

For the compound `CC[C@H](C)[C@H](NC(=O)[C@H](CCCCN)NC(=O)[C@H](CCC(=O)O)NC(=O)[C@H](CCCNC(=N)N)NC(=O)[C@H](CC(C)C)NC(C)=O)C(=O)N[C@@H](C)C(=O)N[C@H](C(=O)N[C@@H](CC(C)C)C(=O)N[C@@H](CCC(N)=O)C(=O)N[C@@H](Cc1c[nH]c2ccccc12)C(=O)N[C@@H](CSCc1ccc(COCc2ccc(CSC[C@H](NC(=O)[C@H](CC(C)C)NC(=O)[C@H](CCC(=O)O)NC(=O)[C@H](CCCNC(=N)N)NC(=O)[C@@H](NC(=O)[C@H](CCCNC(=N)N)NC(=O)[C@H](Cc3c[nH]c4ccccc34)NC(=O)[C@H](CCC(N)=O)NC(=O)[C@H](Cc3c[nH]cn3)NC(=O)[C@@H](NC(=O)[C@H](CCC(=O)O)NC(=O)[C@@H](NC(=O)[C@H](CCCNC(=N)N)NC(=O)[C@H](C)NC(=O)[C@H](CCC(=O)O)NC(=O)[C@H](CC(C)C)NC(C)=O)[C@@H](C)CC)[C@@H](C)O)[C@@H](C)CC)C(=O)N[C@@H](CCC(=O)O)C(N)=O)cc2)cc1)C(=O)N[C@H](C(=O)N[C@@H](CCC(=O)O)C(=O)N[C@@H](CCC(=O)O)C(=O)N[C@@H](CC(C)C)C(=O)N[C@@H](CCCNC(=N)N)C(=O)N[C@@H](CCCCN)C(N)=O)[C@@H](C)CC)[C@@H](C)O` [CHD^Max-2] (I: Ac-LEARIETHQWRIRELCE-NH2 / II: Ac-LREKIATLQWCIEELRK-NH2; linker I:16-II:11 via X1), the Kd in assay [1] is 880 ± 53 nM.

In the case of `CC[C@H](C)[C@H](NC(=O)[C@H](CCC(=O)O)NC(=O)[C@H](Cc1c[nH]c2ccccc12)NC(=O)[C@H](CCC(N)=O)NC(=O)[C@H](C)NC(=O)[C@@H](NC(=O)[C@H](CCC(=O)O)NC(=O)[C@H](C)NC(=O)[C@H](CCCCN)NC(=O)[C@H](CCCNC(=N)N)NC(=O)[C@H](CCCNC(=N)N)NC(=O)[C@H](CC(C)C)NC(C)=O)[C@@H](C)O)C(=O)N[C@@H](CCC(=O)O)C(=O)N[C@@H](CCC(=O)O)C(=O)N[C@@H](CC(C)C)C(=O)N[C@@H](CSCc1ccc(COCc2ccc(CSC[C@H](NC(=O)[C@H](Cc3c[nH]c4ccccc34)NC(=O)[C@H](CCC(N)=O)NC(=O)[C@H](CC(C)C)NC(=O)[C@@H](NC(=O)[C@H](C)NC(=O)[C@H](C)NC(=O)[C@H](CCCCN)NC(=O)[C@H](CCC(=O)O)NC(=O)[C@H](CCCNC(=N)N)NC(=O)[C@H](CC(C)C)NC(=O)CCNC(=S)Nc3ccc4c(c3)C(=O)OC43c4ccc(O)cc4Oc4cc(O)ccc43)[C@@H](C)O)C(=O)N[C@H](C(=O)N[C@@H](CCC(=O)O)C(=O)N[C@@H](CCC(=O)O)C(=O)N[C@@H](CC(C)C)C(=O)N[C@@H](CCCNC(=N)N)C(=O)N[C@@H](CCCCN)C(N)=O)[C@@H](C)CC)cc2)cc1)C(N)=O` [FITC–CHD^Max-3] (I: {FITC-βAla}-LREKAATLQWCIEELRK-NH2 / II: Ac-LRRKAETAQWEIEELC-NH2; linker I:11-II:16 via X1), the dissociation constant (Kd) in assay [1] is above 5000 nM.

As to `CC[C@H](C)[C@H](NC(=O)[C@H](CCCCN)NC(=O)[C@H](CCC(=O)O)NC(=O)[C@H](CCCNC(=N)N)NC(=O)[C@H](CC(C)C)NC(=O)CCNC(=S)Nc1ccc2c(c1)C(=O)OC21c2ccc(O)cc2Oc2cc(O)ccc21)C(=O)N[C@@H](C)C(=O)N[C@H](C(=O)N[C@@H](CC(C)C)C(=O)N[C@@H](CCC(N)=O)C(=O)N[C@@H](Cc1c[nH]c2ccccc12)C(=O)N[C@@H](CSCc1ccc(COCc2ccc(CSC[C@H](NC(=O)[C@H](CC(C)C)NC(=O)[C@H](CCC(=O)O)NC(=O)[C@H](CCC(=O)O)NC(=O)[C@@H](NC(=O)[C@H](CCC(=O)O)NC(=O)[C@H](Cc3c[nH]c4ccccc34)NC(=O)[C@H](CCC(N)=O)NC(=O)[C@H](Cc3c[nH]cn3)NC(=O)[C@@H](NC(=O)[C@H](CCC(=O)O)NC(=O)[C@H](CC(N)=O)NC(=O)[C@H](CCCCN)NC(=O)[C@H](CCCNC(=N)N)NC(=O)[C@H](CCCNC(=N)N)NC(=O)[C@H](CC(C)C)NC(C)=O)[C@@H](C)O)[C@@H](C)CC)C(N)=O)cc2)cc1)C(=O)N[C@H](C(=O)N[C@@H](CCC(=O)O)C(=O)N[C@@H](CCC(=O)O)C(=O)N[C@@H](CC(C)C)C(=O)N[C@@H](CCCNC(=N)N)C(=O)N[C@@H](CCCCN)C(N)=O)[C@@H](C)CC)[C@@H](C)O` [FITC–CHD^Max-1] (I: {FITC-βAla}-LREKIATLQWCIEELRK-NH2 / II: Ac-LRRKNETHQWEIEELC-NH2; linker I:11-II:16 via X1), the “CHD^Max-1 Binding Affinity, Kd (MAX^1-160)” value in assay [2] is recorded as “no binding was observed”. Further, the Kd in assay [1] was found to be 350 ± 17 nM.

With `CC[C@H](C)[C@H](NC(=O)[C@H](CCC(=O)O)NC(=O)[C@H](Cc1c[nH]c2ccccc12)NC(=O)[C@H](CCC(N)=O)NC(=O)[C@H](C)NC(=O)[C@@H](NC(=O)[C@H](CCC(=O)O)NC(=O)[C@H](C)NC(=O)[C@H](CCCCN)NC(=O)[C@H](CCCNC(=N)N)NC(=O)[C@H](CCCNC(=N)N)NC(=O)[C@H](CC(C)C)NC(C)=O)[C@@H](C)O)C(=O)N[C@@H](CCC(=O)O)C(=O)N[C@@H](CCC(=O)O)C(=O)N[C@@H](CC(C)C)C(=O)N[C@@H](CSCc1ccc(COCc2ccc(CSC[C@H](NC(=O)[C@H](Cc3c[nH]c4ccccc34)NC(=O)[C@H](CCC(N)=O)NC(=O)[C@H](CC(C)C)NC(=O)[C@@H](NC(=O)[C@H](C)NC(=O)[C@H](C)NC(=O)[C@H](CCCCN)NC(=O)[C@H](CCC(=O)O)NC(=O)[C@H](CCCNC(=N)N)NC(=O)[C@H](CC(C)C)NC(C)=O)[C@@H](C)O)C(=O)N[C@H](C(=O)N[C@@H](CCC(=O)O)C(=O)N[C@@H](CCC(=O)O)C(=O)N[C@@H](CC(C)C)C(=O)N[C@@H](CCCNC(=N)N)C(=O)N[C@@H](CCCCN)C(N)=O)[C@@H](C)CC)cc2)cc1)C(N)=O` [CHD^Max-3] (I: Ac-LREKAATLQWCIEELRK-NH2 / II: Ac-LRRKAETAQWEIEELC-NH2; linker I:11-II:16 via X1), the Kd in assay [1] is above 5000 nM.
